Assay results reported in patent US5948755A, “Cyclosporin compound, its preparation and the pharmaceutical compositions which contain it” (Rhone-Poulenc Rorer S.A., priority 1996, dated 1999).

How the values were obtained:
retrovirus (HIV) = settings: read-out: average for the active concentrations (IC50); technique of Pauwells et al.; first of the two values printed
[1] = at concentrations displaying anti-retrovirus activity
[2] = EP 484281 and Eur. J. Immunol., 17, 1359 (1987); cited from earlier work

In the case of C/C=C/C[C@@H](C)[C@@H](O)[C@H]1C(=O)N[C@@H](CC)C(=O)N(C)[C@H](SC)C(=O)N(C)[C@@H](CC(C)(C)O)C(=O)N[C@@H](C(C)C)C(=O)N(C)[C@@H](CC(C)C)C(=O)N[C@@H](C)C(=O)N[C@H](C)C(=O)N(C)[C@@H](CC(C)C)C(=O)N(C)[C@@H](CC(C)C)C(=O)N(C)[C@@H](C(C)C)C(=O)N1C [formula (I), [(R)-Methylthio-Sar]^3-[4'-hydroxy-MeLeu]^4-cyclosporin A], the IC50 (retrovirus (HIV)) is reported as 70 nM and the “cytotoxic or cytostatic effect” value [1] is reported as “devoid of any cytotoxic or cytostatic effect”.
For [4'-hydroxy-MeLeul]^4 -cyclosporin, the immunosuppressing nature [2] is listed as “are not immunosuppressants”.
